In patent US20250152751A1, “RED-SHIFTED FLUOROPHORES AND METHODS OF USING THE SAME” (GEORGIA STATE UNIVERSITY RESEARCH FOUNDATION, INC., priority 2022, published 2025):

What was measured:
[1] = Optical properties of the fluorophores measured in ethanol, compared to ICG; format: physicochemical; conditions: for Φ^a (%): compared to ICG
Summary of the method: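 Using ethanol as the solvent, the optical behaviour of each fluorophore was characterised relative to a reference dye. The read-outs were the absorption maximum, the emission maximum, the Stokes shift, the quantum yield and the molar extinction coefficient.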

[2] = Solvatochromism: absorption maximum in different solvents; format: physicochemical

Stokes Shift (nm) [1] [nm] | λabs (nm) [1] [nm] | λem (nm) [1] [nm] | ϵ (cm^−1 M^−1) [1] | Φ^a (%) [1] [%] | λabs (nm) Acetonitrile [2] [nm] | λabs (nm) DMSO [2] [nm] | λabs (nm) Ethanol [2] [nm] | λabs (nm) Methanol [2] [nm] | SMILES
15 | 800 | 815 | 166,300 cm^−1 M^−1 | 11.3 | 795 | 810 | 800 | 800 | CCCCN1C(=CC=C2CCCC(C=C(C#N)C(=O)O)=C2Sc2ccncc2)C(C)(C)c2ccccc21 [Compound 78]
13 | 805 | 818 | 147,300 cm^−1 M^−1 | 11.3 | 800 | 815 | 805 | 800 | CCN1/C(=C/C=C2\CC(C(C)(C)C)CC(/C=C(\C#N)C(=O)O)=C2Sc2ccncc2)C(C)(C)c2cc(Cl)ccc21 (stereo not drawn) [Compound 79]
101 | 685 | 786 | 78,200 cm^−1 M^−1 | 16.7 | 660 | 690 | 685 | 675 | CCN1C(=CC=C2CCCC(C=C(C#N)C(=O)O)=C2N2CCC(CO)CC2)C(C)(C)c2ccccc21 [Compound 80]
124 | 675 | 794 | 61,000 cm^−1 M^−1 | 17.3 | 640 | 670 | 675 | 665 | CCN1C(=CC=C2CCCC(C=C(C#N)C(=O)O)=C2N2CCC(CO)CC2)C(C)(C)c2cc(Br)ccc21 [Compound 82]
124 | 660 | 784 | 75,100 cm^−1 M^−1 | 18.6 | 640 | 665 | 660 | 650 | CCN1C(=CC=C2CC(C(C)(C)C)CC(C=C(C#N)C(=O)O)=C2N2CCC(CO)CC2)C(C)(C)c2ccccc21 (stereo not drawn) [Compound 84]
